In ChEMBL document CHEMBL3797052 (Eur J Med Chem, 2016):

System: not listed separately
Experiment: Cytotoxicity against human HCT116 cells assessed as growth inhibition at 100 uM after 2 days by MTT assay
Format: functional
Settings: HCT-116, 48 h, read-out: GI
With `CNC(=O)c1cc(Oc2ccc3nc(NC(=O)c4ccc5c(c4)OCCO5)sc3c2)ccn1` the inhibition of growth at 100 µM was 49.9%.

System: not listed separately
Experiment: Cytotoxicity against human HCT116 cells assessed as growth inhibition at 10 uM after 2 days by MTT assay
Format: functional
Settings: HCT-116, 48 h, read-out: GI
With `CNC(=O)c1cc(Oc2ccc3nc(NC(=O)c4ccc5c(c4)OCCO5)sc3c2)ccn1` the inhibition of growth at 10 µM was 10.5%.

System: not listed separately
Experiment: Cytotoxicity against human SKBR3 cells assessed as growth inhibition at 100 uM after 2 days by MTT assay
Format: functional
Settings: SK-BR-3, 48 h, read-out: GI
`CNC(=O)c1cc(Oc2ccc3nc(NC(=O)c4ccc5c(c4)OCCO5)sc3c2)ccn1` gave an inhibition of growth at 100 µM of 62.3%.

System: not listed separately
Experiment: Cytotoxicity against human SKBR3 cells assessed as growth inhibition at 10 uM after 2 days by MTT assay
Format: functional
Settings: SK-BR-3, 48 h, read-out: GI
For `CNC(=O)c1cc(Oc2ccc3nc(NC(=O)c4ccc5c(c4)OCCO5)sc3c2)ccn1`, the inhibition of growth at 10 µM was 50.7%.

System: not listed separately
Experiment: Antiproliferative activity against human MOLT4 cells assessed as cell growth at 10^-5 M after 48 hrs by sulforhodamine B assay
Format: functional
Settings: MOLT-4, 48 h, read-out: Activity
Work on `CNC(=O)c1cc(Oc2ccc3nc(NC(=O)c4ccc5c(c4)OCCO5)sc3c2)ccn1` yielded a growth at 10 µM of 94.7%.

System: not listed separately
Experiment: Antiproliferative activity against human RPMI8226 cells assessed as cell growth at 10^-5 M after 48 hrs by sulforhodamine B assay
Format: functional
Settings: RPMI-8226, 48 h, read-out: Activity
Molecule `CNC(=O)c1cc(Oc2ccc3nc(NC(=O)c4ccc5c(c4)OCCO5)sc3c2)ccn1` has a growth at 10 µM of 97.7%.

System: A549
Experiment: Antiproliferative activity against human A549/ATCC cells assessed as cell growth at 10^-5 M after 48 hrs by sulforhodamine B assay
Format: functional
Settings: A549, 48 h, read-out: Activity
Molecule `CNC(=O)c1cc(Oc2ccc3nc(NC(=O)c4ccc5c(c4)OCCO5)sc3c2)ccn1` has a growth at 10 µM of 98.8%.

System: not listed separately
Experiment: Antiproliferative activity against human HOP62 cells assessed as cell growth at 10^-5 M after 48 hrs by sulforhodamine B assay
Format: functional
Settings: HOP-62, 48 h, read-out: Activity
`CNC(=O)c1cc(Oc2ccc3nc(NC(=O)c4ccc5c(c4)OCCO5)sc3c2)ccn1` showed a growth at 10 µM of 104%.

System: not listed separately
Experiment: Antiproliferative activity against human HOP92 cells assessed as cell growth at 10^-5 M after 48 hrs by sulforhodamine B assay
Format: functional
Settings: HOP-92, 48 h, read-out: Activity
In the case of `CNC(=O)c1cc(Oc2ccc3nc(NC(=O)c4ccc5c(c4)OCCO5)sc3c2)ccn1`, the growth at 10 µM is reported as 93.5%.

System: NCI-H226
Experiment: Antiproliferative activity against human NCI-H226 cells assessed as cell growth at 10^-5 M after 48 hrs by sulforhodamine B assay
Format: functional
Settings: NCI-H226, 48 h, read-out: Activity
Molecule `CNC(=O)c1cc(Oc2ccc3nc(NC(=O)c4ccc5c(c4)OCCO5)sc3c2)ccn1` has a growth at 10 µM of 99.6%.

System: NCI-H460
Experiment: Antiproliferative activity against human NCI-H460 cells assessed as cell growth at 10^-5 M after 48 hrs by sulforhodamine B assay
Format: functional
Settings: NCI-H460, 48 h, read-out: Activity
With `CNC(=O)c1cc(Oc2ccc3nc(NC(=O)c4ccc5c(c4)OCCO5)sc3c2)ccn1` the growth at 10 µM was 104%.

System: NCI-H522
Experiment: Antiproliferative activity against human NCI-H522 cells assessed as cell growth at 10^-5 M after 48 hrs by sulforhodamine B assay
Format: functional
Settings: NCI-H522, 48 h, read-out: Activity
With `CNC(=O)c1cc(Oc2ccc3nc(NC(=O)c4ccc5c(c4)OCCO5)sc3c2)ccn1` the growth at 10 µM was 99.6%.

System: not listed separately
Experiment: Antiproliferative activity against human COLO205 cells assessed as cell growth at 10^-5 M after 48 hrs by sulforhodamine B assay
Format: functional
Settings: COLO 205, 48 h, read-out: Activity
Work on `CNC(=O)c1cc(Oc2ccc3nc(NC(=O)c4ccc5c(c4)OCCO5)sc3c2)ccn1` yielded a growth at 10 µM of 103%.

System: not listed separately
Experiment: Antiproliferative activity against human HCT15 cells assessed as cell growth at 10^-5 M after 48 hrs by sulforhodamine B assay
Format: functional
Settings: HCT-15, 48 h, read-out: Activity
`CNC(=O)c1cc(Oc2ccc3nc(NC(=O)c4ccc5c(c4)OCCO5)sc3c2)ccn1` showed a growth at 10 µM of 105%.

System: KM12
Experiment: Antiproliferative activity against human KM12 cells assessed as cell growth at 10^-5 M after 48 hrs by sulforhodamine B assay
Format: functional
Settings: KM12, 48 h, read-out: Activity
In the case of `CNC(=O)c1cc(Oc2ccc3nc(NC(=O)c4ccc5c(c4)OCCO5)sc3c2)ccn1`, the growth at 10 µM is reported as 95.3%.

System: not listed separately
Experiment: Antiproliferative activity against human SNB75 cells assessed as cell growth at 10^-5 M after 48 hrs by sulforhodamine B assay
Format: functional
Settings: SNB-75, 48 h, read-out: Activity
For `CNC(=O)c1cc(Oc2ccc3nc(NC(=O)c4ccc5c(c4)OCCO5)sc3c2)ccn1`, the growth at 10 µM was 95.8%.

System: Malme-3M
Experiment: Antiproliferative activity against human MALME-3M cells assessed as cell growth at 10^-5 M after 48 hrs by sulforhodamine B assay
Format: functional
Settings: read-out: Activity
For `CNC(=O)c1cc(Oc2ccc3nc(NC(=O)c4ccc5c(c4)OCCO5)sc3c2)ccn1`, the growth at 10 µM was 92.5%.

System: M14
Experiment: Antiproliferative activity against human M14 cells assessed as cell growth at 10^-5 M after 48 hrs by sulforhodamine B assay
Format: functional
Settings: M14, 48 h, read-out: Activity
With `CNC(=O)c1cc(Oc2ccc3nc(NC(=O)c4ccc5c(c4)OCCO5)sc3c2)ccn1` the growth at 10 µM was 100%.

System: SK-MEL-2
Experiment: Antiproliferative activity against human SK-MEL-2 cells assessed as cell growth at 10^-5 M after 48 hrs by sulforhodamine B assay
Format: functional
Settings: SK-MEL-2, 48 h, read-out: Activity
`CNC(=O)c1cc(Oc2ccc3nc(NC(=O)c4ccc5c(c4)OCCO5)sc3c2)ccn1` gave a growth at 10 µM of 113%.

System: SK-MEL-28
Experiment: Antiproliferative activity against human SK-MEL-28 cells assessed as cell growth at 10^-5 M after 48 hrs by sulforhodamine B assay
Format: functional
Settings: SK-MEL-28, 48 h, read-out: Activity
With `CNC(=O)c1cc(Oc2ccc3nc(NC(=O)c4ccc5c(c4)OCCO5)sc3c2)ccn1` the growth at 10 µM was 103%.

System: not listed separately
Experiment: Antiproliferative activity against human UACC257 cells assessed as cell growth at 10^-5 M after 48 hrs by sulforhodamine B assay
Format: functional
Settings: UACC-257, 48 h, read-out: Activity
`CNC(=O)c1cc(Oc2ccc3nc(NC(=O)c4ccc5c(c4)OCCO5)sc3c2)ccn1` gave a growth at 10 µM of 95%.

System: not listed separately
Experiment: Antiproliferative activity against human IGROV1 cells assessed as cell growth at 10^-5 M after 48 hrs by sulforhodamine B assay
Format: functional
Settings: IGROV-1, 48 h, read-out: Activity
With `CNC(=O)c1cc(Oc2ccc3nc(NC(=O)c4ccc5c(c4)OCCO5)sc3c2)ccn1` the growth at 10 µM was 99.5%.

System: not listed separately
Experiment: Antiproliferative activity against human OVCAR3 cells assessed as cell growth at 10^-5 M after 48 hrs by sulforhodamine B assay
Format: functional
Settings: OVCAR-3, 48 h, read-out: Activity
Molecule `CNC(=O)c1cc(Oc2ccc3nc(NC(=O)c4ccc5c(c4)OCCO5)sc3c2)ccn1` has a growth at 10 µM of 101%.

System: not listed separately
Experiment: Antiproliferative activity against human OVCAR4 cells assessed as cell growth at 10^-5 M after 48 hrs by sulforhodamine B assay
Format: functional
Settings: OVCAR-4, 48 h, read-out: Activity
`CNC(=O)c1cc(Oc2ccc3nc(NC(=O)c4ccc5c(c4)OCCO5)sc3c2)ccn1` showed a growth at 10 µM of 97.5%.

System: not listed separately
Experiment: Antiproliferative activity against human OVCAR8 cells assessed as cell growth at 10^-5 M after 48 hrs by sulforhodamine B assay
Format: functional
Settings: OVCAR-8, 48 h, read-out: Activity
For `CNC(=O)c1cc(Oc2ccc3nc(NC(=O)c4ccc5c(c4)OCCO5)sc3c2)ccn1`, the growth at 10 µM was 100%.

System: not listed separately
Experiment: Antiproliferative activity against human SKOV3 cells assessed as cell growth at 10^-5 M after 48 hrs by sulforhodamine B assay
Format: functional
Settings: SK-OV-3, 48 h, read-out: Activity
`CNC(=O)c1cc(Oc2ccc3nc(NC(=O)c4ccc5c(c4)OCCO5)sc3c2)ccn1` showed a growth at 10 µM of 101%.

System: 786-0
Experiment: Antiproliferative activity against human 786-0 cells assessed as cell growth at 10^-5 M after 48 hrs by sulforhodamine B assay
Format: functional
Settings: 786-0, 48 h, read-out: Activity
Work on `CNC(=O)c1cc(Oc2ccc3nc(NC(=O)c4ccc5c(c4)OCCO5)sc3c2)ccn1` yielded a growth at 10 µM of 97.3%.

System: A498
Experiment: Antiproliferative activity against human A498 cells assessed as cell growth at 10^-5 M after 48 hrs by sulforhodamine B assay
Format: functional
Settings: A498, 48 h, read-out: Activity
With `CNC(=O)c1cc(Oc2ccc3nc(NC(=O)c4ccc5c(c4)OCCO5)sc3c2)ccn1` the growth at 10 µM was 95.1%.

System: not listed separately
Experiment: Antiproliferative activity against human Caki1 cells assessed as cell growth at 10^-5 M after 48 hrs by sulforhodamine B assay
Format: functional
Settings: CAKI-1, 48 h, read-out: Activity
Work on `CNC(=O)c1cc(Oc2ccc3nc(NC(=O)c4ccc5c(c4)OCCO5)sc3c2)ccn1` yielded a growth at 10 µM of 97.7%.

System: SN12C
Experiment: Antiproliferative activity against human SN12C cells assessed as cell growth at 10^-5 M after 48 hrs by sulforhodamine B assay
Format: functional
Settings: read-out: Activity
Molecule `CNC(=O)c1cc(Oc2ccc3nc(NC(=O)c4ccc5c(c4)OCCO5)sc3c2)ccn1` has a growth at 10 µM of 107%.

System: not listed separately
Experiment: Antiproliferative activity against human TK10 cells assessed as cell growth at 10^-5 M after 48 hrs by sulforhodamine B assay
Format: functional
Settings: TK-10, 48 h, read-out: Activity
In the case of `CNC(=O)c1cc(Oc2ccc3nc(NC(=O)c4ccc5c(c4)OCCO5)sc3c2)ccn1`, the growth at 10 µM is reported as 105%.

System: not listed separately
Experiment: Antiproliferative activity against human UO31 cells assessed as cell growth at 10^-5 M after 48 hrs by sulforhodamine B assay
Format: functional
Settings: UO-31, 48 h, read-out: Activity
In the case of `CNC(=O)c1cc(Oc2ccc3nc(NC(=O)c4ccc5c(c4)OCCO5)sc3c2)ccn1`, the growth at 10 µM is reported as 94.7%.

System: MCF7
Experiment: Antiproliferative activity against human MCF7 cells assessed as cell growth at 10^-5 M after 48 hrs by sulforhodamine B assay
Format: functional
Settings: MCF7, 48 h, read-out: Activity
With `CNC(=O)c1cc(Oc2ccc3nc(NC(=O)c4ccc5c(c4)OCCO5)sc3c2)ccn1` the growth at 10 µM was 90.3%.

System: MDA-MB-231
Experiment: Antiproliferative activity against human MDA-MB-231 cells assessed as cell growth at 10^-5 M after 48 hrs by sulforhodamine B assay
Format: functional
Settings: MDA-MB-231, 48 h, read-out: Activity
`CNC(=O)c1cc(Oc2ccc3nc(NC(=O)c4ccc5c(c4)OCCO5)sc3c2)ccn1` showed a growth at 10 µM of 101%.

System: not listed separately
Experiment: Antiproliferative activity against human Hs 578T cells assessed as cell growth at 10^-5 M after 48 hrs by sulforhodamine B assay
Format: functional
Settings: read-out: Activity
For `CNC(=O)c1cc(Oc2ccc3nc(NC(=O)c4ccc5c(c4)OCCO5)sc3c2)ccn1`, the growth at 10 µM was 112%.

System: not listed separately
Experiment: Antiproliferative activity against human BT549 cells assessed as cell growth at 10^-5 M after 48 hrs by sulforhodamine B assay
Format: functional
Settings: BT-549, 48 h, read-out: Activity
With `CNC(=O)c1cc(Oc2ccc3nc(NC(=O)c4ccc5c(c4)OCCO5)sc3c2)ccn1` the growth at 10 µM was 89.8%.

System: T47D
Experiment: Antiproliferative activity against human T47D cells assessed as cell growth at 10^-5 M after 48 hrs by sulforhodamine B assay
Format: functional
Settings: read-out: Activity
In the case of `CNC(=O)c1cc(Oc2ccc3nc(NC(=O)c4ccc5c(c4)OCCO5)sc3c2)ccn1`, the growth at 10 µM is reported as 92.1%.
